“And” between values parts separate entries of the source, which are not always exact repeats. Equal entries are not always repeated. Where two headings read alike, the source gives them in different places.
How the values were obtained:
AOM-induced colon tumors = system: AOM-induced colon tumors
Experimental: After 42 weeks of experimental diet feeding and total 52 weeks of experimental duration, the rats were necropsied. After necropsy of the rats, the colonic tumors were analyzed histologically. Histopathological evaluation colonic tumor has been completed by two pathologists independently. Colonic tumors were histopathologically classified to adenomas or adenocarcinomas either exophytic (non-invasive) or endophytic (invasive).
Colonic tumors (CTs) were induced by colon specific carcinogen, azoxymethane (AOM) (15 mg/kg by wt, once weekly for 2 weeks) in F344 rats at 8 weeks' age. […] Rats were killed by CO2 asphyxiation 36 weeks after second AOM and the colons were removed, rinsed in PBS, opened longitudinally, and flattened on a filter paper. The location and size of each tumor were noted. Tumors were removed, snap frozen, or fixed in 10% buffered formalin for 24 hours and transferred to 80% ethanol for histopathological analysis. The number and type of colon tumors (adenoma and adenocarcinoma) were analyzed histologically blinded to treatment groups and compared with control diet fed rat colonic tumors.

[1] = system: colonic aberrant crypt foci (ACF); details: male F344 rats
Experimental: Male F344 rats at 8 weeks of age treated with AOM (15 mg/Kg BW) and exposed to 2% DSS for three days. […] Further, the inflammation was scored by following below criteria:
ACF form before colorectal polyps and are an indicator of the potential for cancer.

[2] = 400 ppm in diet, AOM-treated male F344 rats
[3] = 800 ppm in diet, AOM-treated male F344 rats
[4] = 800 ppm in diet, saline treated male F344 rats

CC1(C)Cc2c(-c3ccccc3)c(-c3ccc(Cl)cc3)c(CC(=O)NCC(=O)O)n2C1 [LFA-9, licofelone-glycine]
AdCA Multiplicity (Mean ± SEM) (AOM-induced colon tumors; [2]): 0.30±0.07 Tumors/Rat | Adenoma Incidence (% Rats with Adenomas) (AOM-induced colon tumors; [2]): (30.0%) | Adenoma Incidence (rats with adenomas/rats) (AOM-induced colon tumors; [2]): 9/30 | Adenoma Multiplicity (Mean ± SEM) (AOM-induced colon tumors; [2]): 0.43±0.06 Tumors/Rat | Invasive AdCA Incidence (% Rats with Invasive AdCa) (AOM-induced colon tumors; [2]): (10.0%) | Invasive AdCA Incidence (rats with Invasive AdCa/rats) (AOM-induced colon tumors; [2]): 3/30 | Invasive AdCA Multiplicity (Mean ± SEM) (AOM-induced colon tumors; [2]): 0.10 ± 0.02 Tumors/Rat | Multiplicity Total CRC Tumors (Adenoma + AdCa) (Mean ± SEM) (AOM-induced colon tumors; [2]): 0.73 ± 0.10 Tumors/Rat | Non-Inv AdCa Incidence (% Rats with Non-Inv AdCa) (AOM-induced colon tumors; [2]): (20.0%) | Non-Inv AdCa Incidence (rats with Non-Inv AdCa/rats) (AOM-induced colon tumors; [2]): 6/30 | Non-Inv AdCa Multiplicity (Mean ± SEM) (AOM-induced colon tumors; [2]): 0.20 ± 0.04 Tumors/Rat | Total CRC Tumors (Adenoma + AdCa) incidence (% rats) (AOM-induced colon tumors; [2]): (40.0%) | Total CRC Tumors (Adenoma + AdCa) incidence (rats with tumors/rats) (AOM-induced colon tumors; [2]): 12/30 | % AdCA Inhibition (incidence) (AOM-induced colon tumors; [3]): 76% | % AdCA Inhibition (multiplicity) (AOM-induced colon tumors; [3]): 85.7% | % Inv AdCA Inhibition (incidence) (AOM-induced colon tumors; [3]): 92.5% | % Inv AdCA Inhibition (multiplicity) (AOM-induced colon tumors; [3]): 94.0% | % Non-Inv AdCA Inhibition (incidence) (AOM-induced colon tumors; [3]): 72.3% | % Non-Inv AdCA Inhibition (multiplicity) (AOM-induced colon tumors; [3]): 82.0% | % adenoma Inhibition (incidence) (AOM-induced colon tumors; [3]): 58.2% | % adenoma Inhibition (multiplicity) (AOM-induced colon tumors; [3]): 42% | % of CRC Tumor Inhibition (incidence) (AOM-induced colon tumors; [3]): 47.5% | % of CRC Tumor Inhibition (multiplicity) (AOM-induced colon tumors; [3]): 71.1% and 71.07% | AdCA Incidence (% Rats with AdCa) (AOM-induced colon tumors; [3]): (20.0%) | AdCA Incidence (rats with AdCa/rats) (AOM-induced colon tumors; [3]): 6/30 | AdCA Multiplicity (Mean ± SEM) (AOM-induced colon tumors; [3]): 0.23±0.05 Tumors/Rat | Adenoma Incidence (% Rats with Adenomas) (AOM-induced colon tumors; [3]): (26.7%) | Adenoma Incidence (rats with adenomas/rats) (AOM-induced colon tumors; [3]): 8/30 | Adenoma Multiplicity (Mean ± SEM) (AOM-induced colon tumors; [3]): 0.47±0.06 Tumors/Rat | Invasive AdCA Incidence (% Rats with Invasive AdCa) (AOM-induced colon tumors; [3]): (3.33%) | Invasive AdCA Incidence (rats with Invasive AdCa/rats) (AOM-induced colon tumors; [3]): 1/30 | Invasive AdCA Multiplicity (Mean ± SEM) (AOM-induced colon tumors; [3]): 0.03 ± 0.01 Tumors/Rat | Multiplicity Total CRC Tumors (Adenoma + AdCa) (Mean ± SEM) (AOM-induced colon tumors; [3]): 0.70 ± 0.10 Tumors/Rat | Non-Inv AdCa Incidence (% Rats with Non-Inv AdCa) (AOM-induced colon tumors; [3]): (20.0%) | Non-Inv AdCa Incidence (rats with Non-Inv AdCa/rats) (AOM-induced colon tumors; [3]): 6/30 | Non-Inv AdCa Multiplicity (Mean ± SEM) (AOM-induced colon tumors; [3]): 0.20 ± 0.04 Tumors/Rat | Total CRC Tumors (Adenoma + AdCa) incidence (% rats) (AOM-induced colon tumors; [3]): (46.6%) | Total CRC Tumors (Adenoma + AdCa) incidence (rats with tumors/rats) (AOM-induced colon tumors; [3]): 14/30 | AdCA Incidence (AOM-induced colon tumors; [4]): 0 | AdCA Multiplicity (AOM-induced colon tumors; [4]): 0 Tumors/Rat | Adenoma Incidence (AOM-induced colon tumors; [4]): 0 | Adenoma Multiplicity (AOM-induced colon tumors; [4]): 0 Tumors/Rat | Invasive AdCA Incidence (AOM-induced colon tumors; [4]): 0 | Invasive AdCA Multiplicity (AOM-induced colon tumors; [4]): 0 Tumors/Rat | Multiplicity Total CRC Tumors (Adenoma + AdCa) (AOM-induced colon tumors; [4]): 0 Tumors/Rat | Non-Inv AdCa Incidence (AOM-induced colon tumors; [4]): 0 | Non-Inv AdCa Multiplicity (AOM-induced colon tumors; [4]): 0 Tumors/Rat | Total CRC Tumors (Adenoma + AdCa) incidence (AOM-induced colon tumors; [4]): 0 | body weight retardation and observable toxicities (AOM-induced colon tumors; chronic administration up to 800 ppm in diet, F344 rats): did not show any significant body weight retardation and any observable toxicities | 4 or >multi-crypt AC/colon (Mean ± SEM) ([1]; 200 ppm in diet): 23.5 ± 2.1 | % Inhibition (4 or >multi-crypt AC/colon) ([1]; 200 ppm in diet): 30% | % Inhibition (total ACF/colon) ([1]; 200 ppm in diet): 29.5% | Total ACF/Colon (Mean ± SEM) ([1]; 200 ppm in diet): 110 ± 6.1 | 4 or >multi-crypt AC/colon (Mean ± SEM) ([1]; 400 ppm in diet): 18.3 ± 2.0 | % Inhibition (4 or >multi-crypt AC/colon) ([1]; 400 ppm in diet): 45.4% | % Inhibition (total ACF/colon) ([1]; 400 ppm in diet): 44.2% | Total ACF/Colon (Mean ± SEM) ([1]; 400 ppm in diet): 84 ± 5.3 | 4 or >multi-crypt AC/colon (Mean ± SEM) ([1]; 600 ppm in diet): 13.5 ± 1.7 | % Inhibition (4 or >multi-crypt AC/colon) ([1]; 600 ppm in diet): 61.2% | % Inhibition (total ACF/colon) ([1]; 600 ppm in diet): 60.5% | Total ACF/Colon (Mean ± SEM) ([1]; 600 ppm in diet): 62 ± 4.8

— patent US10206904B2, “Licofelone derivatives and methods of use” (The Board of Regents of the University of Oklahoma, priority 2015, dated 2019)
